We go through 5 compounds from PMC9912809 (Inorganic chemistry, 2022).

The target of series [1] is Human carbonic anhydrase II (hCAII) (Homo sapiens, UniProt P00918). Briefly: hCAII inhibition assay. Format: biochemical.
Series [2] concerns the target Human recombinant MMP-2 catalytic domain (Homo sapiens, UniProt P08253). Briefly: MMP-2 fluorogenic substrate inhibition assay. As to conditions: for Percent inhibition MMP-2: SD of triplicate in parentheses.
Another series deals with T1, GLO1 (Homo sapiens, UniProt Q04760).
T1 sequence (Q04760 2-184 limits assumed): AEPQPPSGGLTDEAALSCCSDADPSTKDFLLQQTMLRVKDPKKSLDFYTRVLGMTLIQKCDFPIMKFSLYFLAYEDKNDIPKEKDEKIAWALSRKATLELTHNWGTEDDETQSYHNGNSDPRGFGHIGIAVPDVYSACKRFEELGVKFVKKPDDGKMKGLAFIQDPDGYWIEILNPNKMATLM
Briefly: Thermal shift assay. It is filed as binding. As to conditions: thermal shift assay (Table S7).

Series [3] can be described thus: logP by potentiometric octanol/water titration. Format: physicochemical.
Series [4] addresses T2, Recombinant human glyoxalase I (GLO1) (Homo sapiens, UniProt Q04760).
T2 sequence (Q04760 2-184 limits assumed): T1 sequence (Q04760 2-184 limits assumed)
Briefly: GLO1 inhibition assay. It is filed as biochemical.

A short description of series [5]: pKa determination with SiriusT3. It is filed as physicochemical. The settings on record: SiriusT3, range pH 2.0 – 12.0, 0.15 M KCl.
The mark [6] stands for this setting: 200 μM, SD of triplicate in parentheses.

A word on the inhibition: it is the relative decrease from the control value, in per cent. What is called IC50 is the concentration that gives 50% inhibition. One may read the logP as the decadic logarithm of the partition coefficient of the neutral form, usually between octanol and water. A higher logP goes with a more lipophilic compound. As usually defined, the logD is lipophilicity at a set pH, counting ionised and neutral species. Low values mean a more hydrophilic compound, high ones a more lipophilic compound.

Like-named read-outs stand apart in the source and are kept apart here.

Human recombinant MMP-2 catalytic domain, sequence (P08253 110-452 limits assumed): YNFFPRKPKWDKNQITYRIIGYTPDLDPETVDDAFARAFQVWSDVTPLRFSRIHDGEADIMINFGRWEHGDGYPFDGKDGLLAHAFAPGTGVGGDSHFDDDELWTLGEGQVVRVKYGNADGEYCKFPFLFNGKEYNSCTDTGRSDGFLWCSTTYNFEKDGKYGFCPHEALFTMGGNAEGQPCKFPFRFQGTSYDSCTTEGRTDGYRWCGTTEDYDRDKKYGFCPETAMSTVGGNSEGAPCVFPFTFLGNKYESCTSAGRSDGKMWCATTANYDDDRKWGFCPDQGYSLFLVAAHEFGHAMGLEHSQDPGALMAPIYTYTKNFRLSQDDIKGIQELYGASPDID

In the case of `Oc1cccc2cccnc12` [8-HQ, 8-Hydroxyquinoline, reference compound], the inhibition at 200 µM in series [1] (read-out: Percent inhibition hCAII) was less than 5%; in series [2] (read-out: Percent inhibition MMP-2) it was 57%; in series [4] (read-out: Percent inhibition GLO1) it was 95%. The 50% inhibitory concentration (IC50) in series [2] is 166 µM. The “ΔTM of MBI-bound GLO1 vs native, unbound GLO1” value at GLO1 is greater than 3 °C. This compound came in with a logP in series [3] (octanol/water) of 1.86. In addition, the pH-dependent lipophilicity (logD) in series [3] (octanol/water, pH 7.4) is 1.85.

For `COCCCn1ccc2cc(-c3cc(-c4ccccc4)cc(=O)n3O)cnc21` [Chugai-3d, reference compound], in series [4] (50 μM final concentration), the “Inhibition of GLO1 by positive control” value is given as “complete inhibition”.

Take `Oc1ccc2ncccc2c1` [Compound 32]: in series [2] (200 μM), the “Reduction of MMP-2 inhibition activity compared to 8-HQ” value is reported as greater than 50% and the “Percent inhibition MMP-2” value is on record as 26 (7) %. Moreover, the “Reduction of GLO1 inhibition activity compared to 8-HQ” value in series [4] (200 μM) was greater than 50%. Also, the “Percent inhibition GLO1” value in series [4] (setting [6]) is less than 5%.

With `CS(=O)(=O)Nc1cccc2cccnc12` [MBI 18], the “Percent inhibition hCAII” value in series [1] (setting [6]) was less than 5%. In addition, the “Percent inhibition MMP-2” value in series [2] (200 μM) was 59 (2) %. For the same compound, the IC50 in series [2] (read-out: IC50 MMP-2, dose-response 10 μM to 1000 or 1500 μM (Figure S2)) stood at 154 ± 9.8 µM. In series [5], the “Measured pKa1 (conjugated acid, protonated nitrogen of heteroaromatic ring)” value was 3.17 and the “Measured pKa2 (hydroxyl group or its isosteric replacement)” value is recorded as 8.97. Besides, the “Measured logD7.4” value in series [3] (derived from measured pKa and logP, pH 7.4) was found to be 0.99. Further, in series [3] (octanol/water, potentiometric, SiriusT3), the “Measured logP” value is listed as 1.01.

`COc1ccc(S(=O)(=O)N(CC(=O)NO)CC(C)C)cc1` [NNGH, reference compound]: the “Inhibition of MMP-2 by positive control” value in series [2] (50 μM final concentration) was “complete inhibition”.
